pEC50, pIC50: −log10 of the molar value.
What was measured:
[1] = tested on: HBV; test: Determination of HBV DNA from the supernatants of HepAD38 cells (anti-HBV activity); format: cell-based, hepatitis B virus; settings: Hepatitis B virus, 144 h; HBV DNA in HepAD38 supernatant, day 6, qPCR; read-out: Cell Activity (EC50)
Summary of the method: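 HepAD38 cells, tetracycline withdrawn to induce HBV, treated with serial half-log compound dilutions; on day 6 HBV DNA purified from filtered supernatant and quantified by real-time PCR against HBV plasmid standards; EC50 from relative copy numbers by non-linear regression, three experiments in triplicate.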

[2] = biological target: T1, HBV core protein (UniProt P03146); test: Biochemical capsid assembly assay (fluorescence quenching); design: species or system hepatitis B virus; settings: read-out: Assembly Activity (IC50); BODIPY-FL labelled core protein, 300 μM NaCl, read 6 min after start
T1 construct: fused on or other part: BODIPY-FL maleimide label on the C-terminal Cys150
T1 sequence (P03146 whole entry, looked up, the tested form may be a part): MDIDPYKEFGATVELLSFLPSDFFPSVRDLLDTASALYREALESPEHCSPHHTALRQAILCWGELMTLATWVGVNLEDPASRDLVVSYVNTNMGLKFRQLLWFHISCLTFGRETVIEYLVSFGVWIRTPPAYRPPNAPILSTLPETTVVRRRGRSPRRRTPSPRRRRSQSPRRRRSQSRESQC
Summary of the method: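 Purified E. coli-expressed HBV core protein (aa 1-149 plus Cys150), BODIPY-FL maleimide-labelled, at 1.0-2.0 μM in 50 mM HEPES pH 7.5 with 0.5% DMSO was used. Compounds were tested at 8 concentrations (0.5-log dilutions from 100, 31.6 or 10 μM). Assembly was started with NaCl ([…]), and fluorescence quenching was read after 6 min (ex 477/em 525 nm). EC50 was determined by non-linear regression.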

[3] = Cell viability assay (AlamarBlue) in HepAD38 cells; settings: human

Row | SMILES | pEC50 [1] | pIC50 [2] | CC50 at 6 days [3]
1 | O=C(c1cc2ccccc2[nH]1)N1CCc2[nH]nc(C(=O)N3CCOCC34CC4)c2C1 [Example 195, 2-(3-{7-oxa-4-azaspiro[2.5]octane-4-carbonyl}-1H,4H,5H,6H,7H-pyrazolo[4,3-c]pyridine-5-carbonyl)-1H-indole] | > 6.00 | 5.00 to 5.30 | > 10 µM
2 | CN(OCCO)C(=O)c1n[nH]c2c1CN(C(=O)c1cc3c(Cl)cccc3[nH]1)CC2 [Example 196, 5-(4-chloro-1H-indole-2-carbonyl)-N-(2-hydroxyethoxy)-N-methyl-1H,4H,5H,6H,7H-pyrazolo[4,3-c]pyridine-3-carboxamide] | > 6.00 | > 5.30 | > 10 µM
3 | Cc1cccc2[nH]c(C(=O)N3CCc4[nH]nc(C(=O)N(C)OCCO)c4C3)cc12 [Example 197, N-(2-hydroxyethoxy)-N-methyl-5-(4-methyl-1H-indole-2-carbonyl)-1H,4H,5H,6H,7H-pyrazolo[4,3-c]pyridine-3-carboxamide] | > 6.00 | > 5.30 | > 10 µM
4 | CN(OCCO)C(=O)c1n[nH]c2c1CN(C(=O)c1cc3ccccc3[nH]1)CC2 [Example 198, N-(2-hydroxyethoxy)-5-(1H-indole-2-carbonyl)-N-methyl-1H,4H,5H,6H,7H-pyrazolo[4,3-c]pyridine-3-carboxamide] | > 6.00 | > 5.30 | > 10 µM
5 | CN(C(=O)c1n[nH]c2c1CN(C(=O)c1cc3ccccc3[nH]1)CC2)C1CCOCC1 [Example 199, 5-(1H-indole-2-carbonyl)-N-methyl-N-(oxan-4-yl)-1H,4H,5H,6H,7H-pyrazolo[4,3-c]pyridine-3-carboxamide] | 4.60 to 6.00 | > 4.00 | > 10 µM
6 | [2H]C([2H])([2H])N(C(=O)c1n[nH]c2c1CN(C(=O)c1cc3ccccc3[nH]1)CC2)C1(COC)CC1 [Example 201, 5-(1H-indole-2-carbonyl)-N-[1-(methoxymethyl)cyclopropyl]-N-(2H3)methyl-1H,4H,5H,6H,7H-pyrazolo[4,3-c]pyridine-3-carboxamide] | > 6.00 | > 5.30 | > 10 µM
7 | COCC1(NC(=O)c2n[nH]c3c2CN(C(=O)c2cc4ccccc4[nH]2)CC3)CC1 [Example 202, 5-(1H-indole-2-carbonyl)-N-[1-(methoxymethyl)cyclopropyl]-1H,4H,5H,6H,7H-pyrazolo[4,3-c]pyridine-3-carboxamide] | > 6.00 | > 5.30 | > 10 µM
8 | O=C(c1cc2ccccc2[nH]1)N1CCc2[nH]nc(OC3CCCC3)c2C1 [Example 203, 2-[3-(cyclopentyloxy)-1H,4H,5H,6H,7H-pyrazolo[4,3-c]pyridine-5-carbonyl]-1H-indole] | > 6.00 | 5.00 to 5.30 | > 10 µM
9 | COCC1(N(C)C(=O)c2n[nH]c3c2CN(C(=O)c2cc4cc(F)ccc4[nH]2)CC3)CC1 [Example 204, 5-(5-fluoro-1H-indole-2-carbonyl)-N-[1-(methoxymethyl)cyclopropyl]-N-methyl-1H,4H,5H,6H,7H-pyrazolo[4,3-c]pyridine-3-carboxamide] | > 6.00 | > 5.30 | > 10 µM
10 | COCC1(N(C)C(=O)c2n[nH]c3c2CN(C(=O)c2cc4c(C(C)(F)F)cc(F)cc4[nH]2)CC3)CC1 [Example 205, 5-[4-(1,1-difluoroethyl)-6-fluoro-1H-indole-2-carbonyl]-N-[1-(methoxymethyl)cyclopropyl]-N-methyl-1H,4H,5H,6H,7H-pyrazolo[4,3-c]pyridine-3-carboxamide] | > 6.00 | > 5.30 | > 10 µM
11 | [2H]C([2H])([2H])OCC1(N(C)C(=O)c2n[nH]c3c2CN(C(=O)c2cc4ccccc4[nH]2)CC3)CC1 [Example 206, 5-(1H-indole-2-carbonyl)-N-{1-[(2H3)methoxymethyl]cyclopropyl}-N-methyl-1H,4H,5H,6H,7H-pyrazolo[4,3-c]pyridine-3-carboxamide] | > 6.00 | > 5.30 | > 10 µM
12 | CCOCC1(N(C)C(=O)c2n[nH]c3c2CN(C(=O)c2cc4ccccc4[nH]2)CC3)CC1 [Example 207, N-[1-(ethoxymethyl)cyclopropyl]-5-(1H-indole-2-carbonyl)-N-methyl-1H,4H,5H,6H,7H-pyrazolo[4,3-c]pyridine-3-carboxamide] | > 6.00 | > 5.30 | > 10 µM
13 | CC(C)OCC1(N(C)C(=O)c2n[nH]c3c2CN(C(=O)c2cc4ccccc4[nH]2)CC3)CC1 [Example 208, 5-(1H-indole-2-carbonyl)-N-methyl-N-{1-[(propan-2-yloxy)methyl]cyclopropyl}-1H,4H,5H,6H,7H-pyrazolo[4,3-c]pyridine-3-carboxamide] | > 6.00 | > 5.30 | > 10 µM
14 | CS(=O)(=O)c1n[nH]c2c1CN(C(=O)c1cc3ccccc3[nH]1)CC2 [Example 211, 2-{3-methanesulfonyl-1H,4H,5H,6H,7H-pyrazolo[4,3-c]pyridine-5-carbonyl}-1H-indole] | > 6.00 | > 5.30 | > 10 µM
15 | CN(C(=O)c1n[nH]c2c1CN(C(=O)c1cc3ccccc3[nH]1)CC2)C1CC1 [Example 232, N-cyclopropyl-5-(1H-indole-2-carbonyl)-N-methyl-1H,4H,5H,6H,7H-pyrazolo[4,3-c]pyridine-3-carboxamide] | > 6.00 | > 5.30 | > 10 µM
16 | CN(C(=O)c1n[nH]c2c1CN(C(=O)c1cc3ccccc3[nH]1)CC2)C1(CCC(=O)O)CC1 [Example 245, 3-{1-[N-methyl 5-(1H-indole-2-carbonyl)-1H,4H,5H,6H,7H-pyrazolo[4,3-c]pyridine-3-amido]cyclopropyl}propanoic acid] | > 4.00 | 5.00 to 5.30 | > 10 µM
17 | CCOC(=O)CCC1(N(C)C(=O)c2n[nH]c3c2CN(C(=O)c2cc4ccccc4[nH]2)CC3)CC1 [Example 246, ethyl 3-{1-[N-methyl 5-(1H-indole-2-carbonyl)-1H,4H,5H,6H,7H-pyrazolo[4,3-c]pyridine-3-amido]cyclopropyl}propanoate] | > 4.00 | > 4.00 | > 10 µM
18 | CN(CCC(=O)NS(=O)(=O)C1CC1)C(=O)c1[nH]nc2c1CN(C(=O)c1cc3ccccc3[nH]1)CC2 [Example 247, N-(cyclopropanesulfonyl)-3-{1-[5-(1H-indole-2-carbonyl)-2H,4H,5H,6H,7H-pyrazolo[4,3-c]pyridin-3-yl]-N-methylformamido}propanamide] | > 4.00 | > 4.00 | > 10 µM
19 | COCCC1(N(C)C(=O)c2[nH]nc3c2CN(C(=O)c2cc4ccccc4[nH]2)CC3)CC1 [Example 248, 5-(1H-indole-2-carbonyl)-N-[1-(2-methoxyethyl)cyclopropyl]-N-methyl-2H,4H,5H,6H,7H-pyrazolo[4,3-c]pyridine-3-carboxamide] | > 6.00 | > 5.30 | > 10 µM
20 | CN(C(=O)c1[nH]nc2c1CN(C(=O)c1cc3ccccc3[nH]1)CC2)C1(CO)COC1 [Example 249, N-[3-(hydroxymethyl)oxetan-3-yl]-5-(1H-indole-2-carbonyl)-N-methyl-2H,4H,5H,6H,7H-pyrazolo[4,3-c]pyridine-3-carboxamide] | > 6.00 | > 5.30 | > 10 µM
21 | CN(C(=O)c1[nH]nc2c1CN(C(=O)c1cc3ccccc3[nH]1)CC2)C1(C)COC1 [Example 251, 5-(1H-indole-2-carbonyl)-N-methyl-N-(3-methyloxetan-3-yl)-2H,4H,5H,6H,7H-pyrazolo[4,3-c]pyridine-3-carboxamide] | > 6.00 | > 5.30 | > 10 µM
22 | CN(C(=O)c1[nH]nc2c1CN(C(=O)c1cc3ccccc3[nH]1)CC2)[C@H]1CCC[C@@H]1O [Example 252, N-[(1S,2S)-2-hydroxycyclopentyl]-5-(1H-indole-2-carbonyl)-N-methyl-2H,4H,5H,6H,7H-pyrazolo[4,3-c]pyridine-3-carboxamide] | > 6.00 | > 5.30 | > 10 µM
23 | CN(CC1(O)CCC1)C(=O)c1n[nH]c2c1CN(C(=O)c1cc3ccccc3[nH]1)CC2 [Example 254, N-[(1-hydroxycyclobutyl)methyl]-5-(1H-indole-2-carbonyl)-N-methyl-1H,4H,5H,6H,7H-pyrazolo[4,3-c]pyridine-3-carboxamide] | > 6.00 | > 5.30 | > 10 µM
24 | CCOCCN(C)C(=O)c1n[nH]c2c1CN(C(=O)c1cc3ccccc3[nH]1)CC2 [Example 255, N-(2-ethoxyethyl)-5-(1H-indole-2-carbonyl)-N-methyl-1H,4H,5H,6H,7H-pyrazolo[4,3-c]pyridine-3-carboxamide] | > 6.00 | > 5.30 | > 10 µM
25 | CN(CC(O)C1CC1)C(=O)c1n[nH]c2c1CN(C(=O)c1cc3ccccc3[nH]1)CC2 (stereo not drawn) [Example 256, N-(2-cyclopropyl-2-hydroxyethyl)-5-(1H-indole-2-carbonyl)-N-methyl-1H,4H,5H,6H,7H-pyrazolo[4,3-c]pyridine-3-carboxamide] | > 6.00 | > 5.30 | > 10 µM
